Values quoted from earlier work, collected in PMC6985722 (Antimicrobial Agents and Chemotherapy, 2020).

Tests used:
RSV = tested on: RSV; parameters: method as in ref 21 = [21]; 21. Hanfelt-Goade D , Maimon N , Nimer A , Riviere F , Catherinot E , Ison M , Jeong SH , Walsh E , Gafter-Gvili A , Nama SR , Napora P , Chowers M , Bergeron A , Zeltser D , Moudgil H , Limaye AP , C; conditions: hospitalized RSV-infected adults treated relatively late; cited from earlier work
[1] = cited from earlier work

| Compound | Viral load and clinical outcomes (RSV) | Terminal half-life [1] |
| --- | --- | --- |
| Cc1cn2nc([C@@H]3CCCCN3C(=O)c3cc(Cl)ccc3NS(C)(=O)=O)cc2nc1N1CC[C@H](N)C1 [GS-5806] | failed to significantly reduce the viral load or improve clinical outcomes | – |
| CC(C)C(=O)OC[C@@]1(CCl)O[C@@H](n2ccc(N)nc2=O)[C@H](F)[C@@H]1OC(=O)C(C)C [ALS-008176] | – | 63 h |
